For one data set, the target named is T1, Axl (Homo sapiens, UniProt P30530).
T1 construct: endogenous in cells; host or cells: HeLa cells
T1 sequence (P30530 26-894): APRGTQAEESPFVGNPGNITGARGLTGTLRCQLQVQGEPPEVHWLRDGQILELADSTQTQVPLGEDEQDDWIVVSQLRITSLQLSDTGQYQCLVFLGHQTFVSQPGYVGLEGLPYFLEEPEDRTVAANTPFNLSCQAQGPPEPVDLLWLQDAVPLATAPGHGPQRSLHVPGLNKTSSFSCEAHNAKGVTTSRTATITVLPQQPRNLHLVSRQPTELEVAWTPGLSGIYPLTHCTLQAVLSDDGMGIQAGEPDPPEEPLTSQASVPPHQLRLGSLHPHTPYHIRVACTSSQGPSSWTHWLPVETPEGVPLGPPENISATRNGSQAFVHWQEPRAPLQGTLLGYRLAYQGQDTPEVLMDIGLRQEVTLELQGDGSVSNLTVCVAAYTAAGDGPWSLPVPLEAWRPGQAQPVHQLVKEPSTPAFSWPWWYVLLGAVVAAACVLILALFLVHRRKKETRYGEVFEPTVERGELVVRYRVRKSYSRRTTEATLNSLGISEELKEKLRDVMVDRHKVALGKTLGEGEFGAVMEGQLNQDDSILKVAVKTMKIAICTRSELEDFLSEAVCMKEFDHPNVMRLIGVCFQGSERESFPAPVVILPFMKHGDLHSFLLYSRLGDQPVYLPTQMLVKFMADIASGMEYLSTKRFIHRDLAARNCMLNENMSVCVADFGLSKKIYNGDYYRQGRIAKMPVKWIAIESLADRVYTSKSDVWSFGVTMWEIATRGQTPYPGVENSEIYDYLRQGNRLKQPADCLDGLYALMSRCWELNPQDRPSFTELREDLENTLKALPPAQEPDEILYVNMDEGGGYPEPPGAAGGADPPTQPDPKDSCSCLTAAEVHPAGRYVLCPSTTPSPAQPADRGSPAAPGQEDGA
Description: Phospho-Akt in-cell Western assay (inhibition of Axl activity). Format: cell-based. The gist of the method: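 HeLa cells on poly-L-lysine, starved 24 h in 0.5% FCS DMEM with Axl/Fc 500 ng/mL, pre-treated with compound 1 h at 37° C. Axl stimulated 5 min by anti-Axl/anti-mouse antibody cross-linking. Fixed cells probed with anti-phospho-Akt and HRP secondary, chemiluminescence read.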

Setting [1] is: inhibition of Axl activity, Table 1.
Setting [2] is: Table 5, Hela cells, Axl antibody cross-linking stimulation, phospho-Akt chemiluminescence.

The source of these data is patent US8389557B2, “Triazole derivatives useful as Axl inhibitors” (Rigel Pharmaceuticals, Inc., priority 2005, dated 2013).

Structures can show the parent of a compound that is named as a salt. Some results are limits rather than exact numbers.

By melting point is commonly meant the temperature of the solid-liquid transition. One may read the IC50 as the point on the concentration scale where inhibition reaches its midpoint. For the molecule `CC(C)Oc1ccc(C(=O)n2nc(Nc3cccc(OCCN4CCOCC4)c3)nc2N)cc1` [(Ia-22)], the melting point is 152 to 153.7 °C. Also, the IC50 at Axl (setting [1]) lay in the range of 1 to 10 µM.

Molecule `CC(C)Oc1ccc(C(=O)n2nc(Nc3cccc(O)c3)nc2N)cc1` [(Ia-13), 5-amino-3-[3-(hydroxy)phenylamino]-1-(4-(iso-propoxy)phenyl)carbonyl-1H-1,2,4-triazole] returned a melting point of 204.2 to 211.9 °C. The molecule also yielded an IC50 at Axl (setting [1]) of 1 to 10 µM.

`Cc1ccccc1C(=O)n1nc(Nc2cccc(OCC#N)c2)nc1N` [(Ia-8), 5-amino-3-[3-(cyanomethoxy)phenylamino]-1-(2-(methyl)phenyl)carbonyl-1H-1,2,4-triazole]: the melting point lay in the range of 204.5 to 207.9 °C. This molecule also registered an IC50 against Axl (setting [1]) greater than 20 µM.

`CC(C)Oc1cccc(C(=O)n2nc(Nc3cccc(OCc4ccccc4)c3)nc2N)c1` [(Ia-17), 5-amino-3-[3-(benzyloxy)phenylamino]-1-(3-(iso-propoxy)phenyl)carbonyl-1H-1,2,4-triazole] showed a melting point of 131.1 to 132.4 °C. This molecule returned an IC50 against Axl (setting [1]) greater than 20 µM.

Consider `Cc1cccc(C(=O)n2nc(Nc3cccc(OCC(=O)NCCN4CCOCC4)c3)nc2N)c1` [(Ia-18), 5-amino-1-(3-methylphenyl)carbonyl-3-[3-[2-(4-morpholinyl)ethylaminocarbonylmethoxy]phenyl]amino-1H-1,2,4-triazole], for which the melting point lay in the range of 145 to 147 °C. At Axl (setting [1]), this molecule had an IC50 of 1 to 10 µM.

Molecule `CC(C)Oc1ccc(C(=O)n2nc(Nc3cccc(OCCC4OCCO4)c3)nc2N)cc1` [(Ia-24), 5-amino-3-[3-[2-(1,3-dioxolan-2-yl)ethoxy]phenylamino]-1-(4-(iso-propoxy)phenyl)carbonyl-1H-1,2,4-triazole] registered a melting point of 144.4 to 145.4 °C. For the same molecule, the IC50 at Axl (setting [1]) fell in the range of 1 to 10 µM.

As to `Cc1cccc(C(=O)n2nc(Nc3cccc(OCC(=O)N4CCNCC4)c3)nc2N)c1` [(Ia-20), 5-amino-1-(3-methylphenyl)carbonyl-3-[3-(piperazin-4-ylcarbonylmethoxy)phenyl]amino-1H-1,2,4-triazole], the melting point fell in the range of 169 to 171 °C. Also, the IC50 on Axl (setting [1]) lay in the range of 1 to 10 µM.

The molecule `C=CCN(C)Cc1cc2cc(Nc3nc(N)n(C(=O)c4cccc(C)c4)n3)ccc2o1` [(Ia-28), 5-amino-3-(2-((allyl(methyl)amino)methyl)benzofuran-5-yl)amino-1-(3-methylphenyl)carbonyl-1H-1,2,4-triazole] showed a melting point of 128 to 131 °C. The molecule also showed an IC50 against Axl (setting [2]) of 1 to 10 µM.

For `Cc1cccc(C(=O)n2nc(Nc3cccc(OCC(=O)N4CCN(C(=O)OC(C)(C)C)CC4)c3)nc2N)c1` [(Ia-19)], the melting point fell in the range of 206 to 208 °C. On Axl (setting [1]), this molecule registered an IC50 greater than 20 µM.

The molecule `CC(C)Oc1cccc(C(=O)n2nc(Nc3cccc(O)c3)nc2N)c1` [(Ia-16), 5-amino-3-[3-(hydroxy)phenylamino]-1-(3-(iso-propoxy)phenyl)carbonyl-1H-1,2,4-triazole] had a melting point of 211.3 to 214.8 °C. Also, the IC50 against Axl (setting [1]) lay within 1 to 10 µM.

Take `CC(C)Oc1ccc(C(=O)n2nc(Nc3ccc(OCC#N)cc3)nc2N)cc1` [(Ia-12), 5-amino-3-[4-(cyanomethoxy)phenylamino]-1-(4-(iso-propoxy)phenyl)carbonyl-1H-1,2,4-triazole]: the melting point was 182.9 to 186.1 °C. The same molecule displayed an IC50 at Axl (setting [1]) of 1 to 10 µM.

Molecule `Nc1nc(Nc2ccccc2)nn1C(=O)/C=C/c1ccco1` [compound 141, 5-amino-3-phenylamino-1-(trans-2-(furan-2-yl)ethenyl)carbonyl-1H-1,2,4-triazole] showed a melting point of 212 to 216 °C. Further, the IC50 against Axl (Table 3, Hela cells, Axl antibody cross-linking stimulation, phospho-Akt chemiluminescence) lay within 1 to 10 µM.

Take `Nc1nc(Nc2cccc(OCCN3CCOCC3)c2)nn1C(=O)c1ccccc1` (as salt: salt) [(Ia-26), 5-amino-3-[3-[2-(morpholin-4-yl)ethoxy]phenylamino]-1-phenylcarbonyl-1H-1,2,4-triazole, hydrogen chloride salt]: the melting point is 236.6 to 242.1 °C.

As for `Cc1cccc(C(=O)n2nc(Nc3cccc(OCC#N)c3)nc2N)c1` [(Ia-9), 5-amino-3-[3-(cyanomethoxy)phenylamino]-1-(3-(methyl)phenyl)carbonyl-1H-1,2,4-triazole], the melting point fell in the range of 220 to 224.4 °C. For the same molecule, the IC50 against Axl (setting [1]) was greater than 20 µM.

Molecule `CC(C)Oc1ccc(C(=O)n2nc(Nc3ccc(O)cc3)nc2N)cc1` [(Ia-11), 5-amino-3-[4-(hydroxy)phenylamino]-1-(4-(iso-propoxy)phenyl)carbonyl-1H-1,2,4-triazole] gave a melting point of 229 to 234 °C. On Axl (setting [1]), the concentration for half-maximal inhibition (IC50) fell in the range of 1 to 10 µM.

`CNCc1cc2cc(Nc3nc(N)n(C(=O)c4cccc(C)c4)n3)ccc2o1` [(Ia-29), 5-amino-3-(2-((methylamino)methyl)benzofuran-5-yl)amino-1-(3-methylphenyl)carbonyl-1H-1,2,4-triazole]: the melting point was 128 to 131 °C. Further, the IC50 against Axl (setting [2]) was less than 1 µM.

With `Nc1nc(Nc2ccccc2)n(C(=O)/C=C/c2ccco2)n1` [compound 140, 3-amino-5-phenylamino-1-(trans-2-(furan-2-yl)ethenyl)carbonyl-1H-1,2,4-triazole], the melting point lay in the range of 190 to 193 °C. On Axl (Table 4, Hela cells, Axl antibody cross-linking stimulation, phospho-Akt chemiluminescence), this molecule displayed an IC50 greater than 20 µM.

On to `CC(C)Oc1ccc(C(=O)n2nc(Nc3ccc(OCc4ccccc4)cc3)nc2N)cc1` [(Ia-10), 5-amino-3-[4-(benzyloxy)phenylamino]-1-(4-(iso-propoxy)phenyl)carbonyl-1H-1,2,4-triazole], for which the melting point fell in the range of 79 to 81 °C. This molecule came in with an IC50 at Axl (setting [1]) greater than 20 µM.

For the molecule `CC(C)Oc1ccc(C(=O)n2nc(Nc3cccc(OCc4ccccc4)c3)nc2N)cc1` [(Ia-25), 5-amino-3-[3-(benzyloxy)phenylamino]-1-(4-(iso-propoxy)phenyl)carbonyl-1H-1,2,4-triazole], the melting point fell in the range of 188.7 to 189.9 °C. On Axl (setting [1]), the IC50 is greater than 20 µM.

In turn, `Cc1cccc(C(=O)n2nc(Nc3cccc(OCCN4CCOCC4)c3)nc2N)c1` [(Ia-27)] registered a melting point of 60 to 63 °C. For the same molecule, the IC50 at Axl (setting [1]) is 1 to 10 µM.
